Read-outs that look alike come from different tables or passages of the source.
Assays:
[1] = biological target: 5-lipoxygenase; details: read-out: IC50, 5-lipoxygenase; cited from earlier work
[2] = biological target: sigma 1 receptor; details: cited from earlier work
[3] = test system: AR; details: read-out: IC50 in AR competitive binding assay; cited from earlier work
[4] = test system: AR; details: read-out: IC50 in AR transcriptional assay; cited from earlier work
[5] = test system: DOCA-salt-induced organ damage; details: rats; by blocking the activation of TH17 cells; cited from earlier work
[6] = test system: prostate cancer; details: cited from earlier work
[7] = biological target: T1, human RORγt (Homo sapiens, UniProt P51449); assay: RORγt-GAL4 dual-luciferase reporter assay; assay type: cell-based
T1 sequence (P51449 97-516): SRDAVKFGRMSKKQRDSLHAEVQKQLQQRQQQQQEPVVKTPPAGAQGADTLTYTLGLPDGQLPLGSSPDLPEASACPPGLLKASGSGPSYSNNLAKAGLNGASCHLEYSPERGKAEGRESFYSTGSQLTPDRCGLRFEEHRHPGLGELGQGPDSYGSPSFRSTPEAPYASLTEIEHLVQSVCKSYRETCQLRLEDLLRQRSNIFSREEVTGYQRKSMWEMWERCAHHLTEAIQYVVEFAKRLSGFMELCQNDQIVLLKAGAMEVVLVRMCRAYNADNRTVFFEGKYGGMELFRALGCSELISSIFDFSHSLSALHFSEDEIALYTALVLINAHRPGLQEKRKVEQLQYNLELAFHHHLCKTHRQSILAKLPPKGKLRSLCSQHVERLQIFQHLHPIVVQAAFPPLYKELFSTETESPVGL

[8] = biological target: T2, RORγt-LBD (262-518) (Homo sapiens, UniProt P51449); assay type: biochemical
T2 sequence (P51449 262-518): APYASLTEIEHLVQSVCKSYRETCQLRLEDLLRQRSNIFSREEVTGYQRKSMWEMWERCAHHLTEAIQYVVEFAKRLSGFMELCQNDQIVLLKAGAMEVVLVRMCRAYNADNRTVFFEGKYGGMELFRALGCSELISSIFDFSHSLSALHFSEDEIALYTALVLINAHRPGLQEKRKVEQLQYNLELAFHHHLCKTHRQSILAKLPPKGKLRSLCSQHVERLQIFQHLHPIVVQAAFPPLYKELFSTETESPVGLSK

[9] = biological target: T3, RORγt-LBD (Homo sapiens, UniProt P51449); assay: Intrinsic fluorescence-quenching based assay; assay type: binding; details: RORγt-LBD 30 μM; compound 0-50 μM; excitation 280 nm
T3 sequence (P51449 262-518): T2 sequence (P51449 262-518)

[10] = biological target: T3, RORγt-LBD; assay: Isothermal titration calorimetry; assay type: binding
[11] = biological target: T4, RORγt-LBD-SRC2.2 (Homo sapiens, UniProt P51449); assay: Drug affinity responsive target stability; assay type: binding; details: 60 μM protein, 40 °C, 10 min, dose-dependent
T4 sequence (P51449 with tags, fused parts or gaps): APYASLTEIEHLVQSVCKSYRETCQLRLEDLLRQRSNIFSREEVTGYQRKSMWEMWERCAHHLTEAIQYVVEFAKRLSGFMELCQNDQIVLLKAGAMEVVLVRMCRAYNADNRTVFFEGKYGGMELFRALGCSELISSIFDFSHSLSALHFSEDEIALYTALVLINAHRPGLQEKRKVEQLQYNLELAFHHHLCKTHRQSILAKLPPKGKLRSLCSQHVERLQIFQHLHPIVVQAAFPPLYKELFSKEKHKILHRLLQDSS

[12] = biological target: T5, RORγt in HEK293T cells (Homo sapiens, UniProt P51449); assay: Cellular thermal shift assay; assay type: cell-based; details: HEK293T cells exogenously expressing RORγt, 60 μM, 2 h
T5 sequence (P51449 1-497 isoform P51449-2): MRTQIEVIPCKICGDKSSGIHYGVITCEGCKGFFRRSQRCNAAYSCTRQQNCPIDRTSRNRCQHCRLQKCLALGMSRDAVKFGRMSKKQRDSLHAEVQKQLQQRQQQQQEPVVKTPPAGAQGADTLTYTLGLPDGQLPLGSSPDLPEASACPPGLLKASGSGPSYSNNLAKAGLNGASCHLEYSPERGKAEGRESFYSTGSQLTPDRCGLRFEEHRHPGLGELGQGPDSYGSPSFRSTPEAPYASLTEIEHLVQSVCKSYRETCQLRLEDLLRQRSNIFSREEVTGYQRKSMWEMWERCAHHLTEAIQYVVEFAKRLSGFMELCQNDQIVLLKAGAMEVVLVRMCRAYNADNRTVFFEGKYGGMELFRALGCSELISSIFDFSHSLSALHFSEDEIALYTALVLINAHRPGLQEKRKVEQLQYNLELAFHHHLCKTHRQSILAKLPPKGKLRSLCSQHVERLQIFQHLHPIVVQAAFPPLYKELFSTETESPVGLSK

[13] = biological target: T4, RORγt-LBD-SRC2.2; assay: Co-crystallization and X-ray structure determination; details: resolution 1.99 Å
[14] = test system: experimental autoimmune encephalomyelitis (EAE); assay: MOG35-55-induced EAE: clinical signs, disease onset, body weight; assay type: in vivo, female C57BL/6 mice; details: EAE mice; for EAE induced body weight loss: 50 mg kg^−1 orally every day from day 12; for mean disease onset date: 50 mg kg^−1 orally every day from day 12, n = 8
[15] = test system: TH17 cells; assay: Flow cytometry of spleen cells of EAE mice; assay type: in vivo; details: CD4 and IL-17 dual-staining
[16] = test system: blood–brain barrier (BBB); assay: In vivo imaging of brain inflammation; details: EAE mice, day 9 post-administration
[17] = test system: IL-17A; assay: ELISA of IL-17A in spinal cord and brain supernatant; assay type: in vivo; details: EAE mice
[18] = test system: spinal cord white matter; assay: Histochemical analysis of spinal cords; assay type: in vivo; details: EAE mice, 50 mg kg^−1 orally, LFB and H&E staining

Which IC50 [1] does the source give for `Oc1ccc(/C=C/c2cc(O)cc(O)c2)cc1` [resveratrol] here?
The IC50 was 4900 nM.

Which “pKi, sigma 1 receptor” value [2] does the source give for `CCN(CC)CCCC(C)Nc1ccnc2cc(Cl)ccc12` (centres unmarked) [chloroquine] here?
Its value is 7.1.

Which IC50 [1] does the source give for `Oc1cc(O)cc(/C=C/c2ccc(O)c(O)c2)c1` [piceatannol] here?
The IC50 was 240 nM.

Which results are given for `C[C@]12CC[C@H](O)CC1=CC[C@@H]1[C@@H]2CC[C@]2(C)C(c3cccnc3)=CC[C@@H]12` [abiraterone, Abiraterone]?
IC50 [3]: 7600 nM; IC50 [4]: 9400 nM

What does the source list for `CC(=O)S[C@@H]1CC2=CC(=O)CC[C@]2(C)[C@H]2CC[C@@]3(C)[C@@H](CC[C@@]34CCC(=O)O4)[C@H]12` [Spironolactone]?
effect on DOCA-salt-induced organ damage [5]: decrease DOCA-salt-induced organ damage; effect on the incidence of prostate cancer [6]: reduce the incidence of prostate cancer

Which results are given for `C[C@H]1[C@H](C)CC[C@]2(C(=O)O)CC[C@]3(C)C(=CC[C@@H]4[C@@]5(C)CCC(=O)C(C)(C)[C@@H]5CC[C@]43C)[C@H]12` [ursonic acid, Ursonic Acid]?
IC50 [7]: 100 nM; IC50 [8]: 10 nM; fluorescence quenching of RORγt-LBD [9]: dose-dependently induced fluorescence quenching; Kd [10]: 3040 nM; proteolysis of RORγt-LBD-SRC2.2 by pronase E [11]: clearly decreased; Tm values of RORγt (CETSA) [12]: significantly increased; binding site in the crystal structure (PDB code: 6J3N) [13]: buried in the canonical orthosteric ligand pocket; EAE induced body weight loss [14]: significantly reversed; mean disease onset date [14]: 17.3 ± 0.5 days; frequency of pro-inflammatory TH17 cells in the spleen [15]: reduced frequency; EAE-induced BBB disruption (brain BSA-Cy5.5 accumulation) [16]: remitted the EAE-induced BBB disruption obviously; IL-17A protein expression in brains and spinal cords [17]: effectively reduced; immune cell infiltrations in white matter of spinal cords [18]: reduced

With `CCN(CCO)CCCC(C)Nc1ccnc2cc(Cl)ccc12` (centres unmarked) [hydroxychloroquine] as the molecule, how does the “pKi, sigma 1 receptor” value [2] read?
The value was 6.9.

What does the source list for `CC1(C)CC[C@]2(C(=O)O)CC[C@]3(C)C(=CC[C@@H]4[C@@]5(C)CCC(=O)C(C)(C)[C@@H]5CC[C@]43C)[C@@H]2C1` [oleanonic acid, Oleanonic Acid]?
IC50 [8]: 280 nM; fluorescence quenching of RORγt-LBD [9]: dose-dependently induced fluorescence quenching; Kd [10]: 1060 nM; proteolysis of RORγt-LBD-SRC2.2 by pronase E [11]: clearly decreased; Tm values of RORγt (CETSA) [12]: significantly increased; EAE induced body weight loss [14]: significantly reversed; mean disease onset date [14]: 15.3 ± 0.2 days; frequency of pro-inflammatory TH17 cells in the spleen [15]: reduced frequency; EAE-induced BBB disruption (brain BSA-Cy5.5 accumulation) [16]: remitted the EAE-induced BBB disruption obviously; IL-17A protein expression in brains and spinal cords [17]: effectively reduced; immune cell infiltrations in white matter of spinal cords [18]: reduced

— article PMC8790893 (Chemical Science, 2021)
